Results from US4696925A, “Cholecystokinin antagonist compounds” (Merck & Co., Inc., priority 1985, dated 1987).
pIC50: −log10 of the molar value.

Target: T1, Pancreatic CCK (Rattus norvegicus, UniProt P30551)
T1 construct: from tissue; host or cells: pancreas (rat, inferred from the cited method)
T1 sequence (P30551 1-444): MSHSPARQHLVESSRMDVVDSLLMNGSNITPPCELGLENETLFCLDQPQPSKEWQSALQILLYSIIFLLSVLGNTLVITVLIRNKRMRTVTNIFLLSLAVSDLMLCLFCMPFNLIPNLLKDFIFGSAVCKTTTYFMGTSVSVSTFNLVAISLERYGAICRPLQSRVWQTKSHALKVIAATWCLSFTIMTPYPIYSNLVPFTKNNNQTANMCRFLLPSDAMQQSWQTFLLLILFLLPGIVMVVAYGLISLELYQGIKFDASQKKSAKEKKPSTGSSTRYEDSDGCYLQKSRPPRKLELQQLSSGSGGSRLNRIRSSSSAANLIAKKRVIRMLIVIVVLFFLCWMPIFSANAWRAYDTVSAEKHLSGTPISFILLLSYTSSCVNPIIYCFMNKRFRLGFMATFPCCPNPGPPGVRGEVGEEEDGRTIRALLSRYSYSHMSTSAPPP
Assay: Pancreatic CCK inhibition (assay of European Patent Application No. 0,116,150)
Type: binding
Text: The following formula and tabulation further identify the above listed compounds. Pancreatic CCK inhibition data is also provided; the assay used is that disclosed in said European Patent Application No. 0,116,150.
The following table contains information Identifying other compounds of the present invention and pancrease CCK inhibition data (European Patent Application Assay).

[1] = pancreas CCK inhibition, European Patent Application assay, leucine analogs
[2] = pancreatic CCK inhibition, assay of EP 0,116,150

`O=C1NC(CC2(O)c3ccccc3N3C(=O)C(C4CCCCC4)NC32)c2nc3ccccc3c(=O)n2-c2ccccc21` (stereo not drawn) [Compound 068] gave a pIC50 [1] of 6.22.
`CC(CC1NC2N(C1=O)c1ccccc1C2(O)CC1NC(=O)c2ccccc2-n2c1nc1ccccc1c2=O)C(F)(F)F` (stereo not drawn) [Compound 328] showed a pIC50 [1] of 6.00.
`O=C1NC(CC2(O)c3ccccc3N3C(=O)C(c4ccccc4)NC32)c2nc3ccccc3c(=O)n2-c2ccccc21` (stereo not drawn) [Compound 500] gave a pIC50 [1] of 4.70.
`C=C(C)CC1NC2N(C1=O)c1ccccc1C2(O)CC1NC(=O)c2ccccc2-n2c1nc1ccccc1c2=O` (stereo not drawn) [Compound 538] was tested, and the pIC50 [1] was 5.48.
Compound `CCCC1NC2N(C1=O)c1ccccc1C2(O)CC1NC(=O)c2ccccc2-n2c1nc1ccccc1c2=O` (stereo not drawn) [Compound 539] has a pIC50 [1] of 4.92.
`C=CCC1NC2N(C1=O)c1ccccc1C2(O)CC1NC(=O)c2ccccc2-n2c1nc1ccccc1c2=O` (stereo not drawn) [Compound 540] gave a pIC50 [1] of 5.12.
`CCC(C)C1NC2N(C1=O)c1ccccc1C2(O)CC1NC(=O)c2ccccc2-n2c1nc1ccccc1c2=O` (stereo not drawn) [Compound 654] was tested, and the pIC50 [1] was 5.23.
Compound `CSCCC1NC2N(C1=O)c1ccccc1C2(O)CC1NC(=O)c2ccccc2-n2c1nc1ccccc1c2=O` (stereo not drawn) [Compound 655] has a pIC50 [1] of 5.39.
With `CCCCC1NC2N(C1=O)c1ccccc1C2(O)CC1NC(=O)c2ccccc2-n2c1nc1ccccc1c2=O` (stereo not drawn) [Compound 656] the pIC50 [1] was 5.60.
`CCSCCC1NC2N(C1=O)c1ccccc1C2(O)CC1NC(=O)c2ccccc2-n2c1nc1ccccc1c2=O` (stereo not drawn) [Compound 721] gave a pIC50 [1] of 5.82.
Compound `O=C1NC(Cc2c[nH]c3ncccc23)c2nc3ccccc3c(=O)n2-c2ccccc21` (stereo not drawn) [Compound 841] has a pIC50 [2] of 4.52.
`CC(C)C[C@@H]1NC2N(C1=O)c1ccccc1C2(O)C[C@@H]1NC(=O)c2ccc(F)cc2-n2c1nc1ccccc1c2=O` (stereo partly drawn) [Compound 845] showed a pIC50 [2] of 5.84.
Compound `O=C1c2ccccc2-n2c(nc3ccccc3c2=O)C2CC3(O)c4cc(F)ccc4NC3N12` (stereo not drawn) [Compound 856] has a pIC50 [2] of 4.52.
`O=C1c2cc(F)ccc2-n2c(nc3ccc(F)cc3c2=O)C2CC3(O)c4cc(F)ccc4NC3N12` (stereo not drawn) [Compound 857] showed a pIC50 [2] of 5.60.
Work on `O=C1NC(CC2(O)c3ccccc3N3C(=O)C(C4CCCC4)NC32)c2nc3ccccc3c(=O)n2-c2ccccc21` (stereo not drawn) [Compound 931] yielded a pIC50 [1] of 5.66.
